Results published in the kinase profiling compilation of Christmann-Franck et al. (2016).

Experiments:
Test in all cases: KINOMEscan competition binding
Conditions in all cases: compound 10.0 µM
PTK2B (human) = PTK2B (human) (UniProt Q14289)
ADCK4 (human) = ADCK4 (human) (UniProt Q96D53)
ANKK1 (human) = ANKK1 (human) (UniProt Q8NFD2)
TGFBR1 (human) = TGFBR1 (human) (UniProt P36897)
GSK3A (human) = GSK3A (human) (UniProt P49840)
CDK16 (human) = CDK16 (human) (UniProt Q00536)
TLK2 (human) = TLK2 (human) (UniProt Q86UE8)
PHKG1 (human) = PHKG1 (human) (UniProt Q16816)
MAP3K4 (human) = MAP3K4 (human) (UniProt Q9Y6R4)
ACVR1 (human) = ACVR1 (human) (UniProt Q04771)
MAP3K11 (human) = MAP3K11 (human) (UniProt Q16584)
PIK3CB (human) = PIK3CB (human) (UniProt P42338)
RPS6KA6 KD2 (human) = RPS6KA6 KD2 (human) (UniProt Q9UK32)
PRKACA (human) = PRKACA (human) (UniProt P17612)
NEK1 (human) = NEK1 (human) (UniProt Q96PY6)
MYO3A (human) = MYO3A (human) (UniProt Q8NEV4)
DCLK2 (human) = DCLK2 (human) (UniProt Q8N568)
LATS1 (human) = LATS1 (human) (UniProt O95835)
STK25 (human) = STK25 (human) (UniProt O00506)
MLTK (human) = MLTK (human) (UniProt Q9NYL2)
NEK9 (human) = NEK9 (human) (UniProt Q8TD19)
RET (human) = RET (human) (UniProt P07949)
AURKB (human) = AURKB (human) (UniProt Q96GD4)
CSNK1D (human) = CSNK1D (human) (UniProt P48730)
PLK1 (human) = PLK1 (human) (UniProt P53350)
PHKG2 (human) = PHKG2 (human) (UniProt P15735)
ULK1 (human) = ULK1 (human) (UniProt O75385)
LYN (human) = LYN (human) (UniProt P07948)
NUAK1 (human) = NUAK1 (human) (UniProt O60285)
RIOK3 (human) = RIOK3 (human) (UniProt O14730)
[1] = target: JAK2 JH1 catalytic (human) (UniProt O60674)
CAMKK2 (human) = CAMKK2 (human) (UniProt Q96RR4)
PDGFRA (human) = PDGFRA (human) (UniProt P16234)
CSNK1G1 (human) = CSNK1G1 (human) (UniProt Q9HCP0)
CDK14 (human) = CDK14 (human) (UniProt O94921)
CDK7 (human) = CDK7 (human) (UniProt P50613)
EPHA8 (human) = EPHA8 (human) (UniProt P29322)
ACVR2B (human) = ACVR2B (human) (UniProt Q13705)
PAK2 (human) = PAK2 (human) (UniProt Q13177)
DAPK1 (human) = DAPK1 (human) (UniProt P53355)

Chain of LATS1 (human) (O95835 whole entry, looked up): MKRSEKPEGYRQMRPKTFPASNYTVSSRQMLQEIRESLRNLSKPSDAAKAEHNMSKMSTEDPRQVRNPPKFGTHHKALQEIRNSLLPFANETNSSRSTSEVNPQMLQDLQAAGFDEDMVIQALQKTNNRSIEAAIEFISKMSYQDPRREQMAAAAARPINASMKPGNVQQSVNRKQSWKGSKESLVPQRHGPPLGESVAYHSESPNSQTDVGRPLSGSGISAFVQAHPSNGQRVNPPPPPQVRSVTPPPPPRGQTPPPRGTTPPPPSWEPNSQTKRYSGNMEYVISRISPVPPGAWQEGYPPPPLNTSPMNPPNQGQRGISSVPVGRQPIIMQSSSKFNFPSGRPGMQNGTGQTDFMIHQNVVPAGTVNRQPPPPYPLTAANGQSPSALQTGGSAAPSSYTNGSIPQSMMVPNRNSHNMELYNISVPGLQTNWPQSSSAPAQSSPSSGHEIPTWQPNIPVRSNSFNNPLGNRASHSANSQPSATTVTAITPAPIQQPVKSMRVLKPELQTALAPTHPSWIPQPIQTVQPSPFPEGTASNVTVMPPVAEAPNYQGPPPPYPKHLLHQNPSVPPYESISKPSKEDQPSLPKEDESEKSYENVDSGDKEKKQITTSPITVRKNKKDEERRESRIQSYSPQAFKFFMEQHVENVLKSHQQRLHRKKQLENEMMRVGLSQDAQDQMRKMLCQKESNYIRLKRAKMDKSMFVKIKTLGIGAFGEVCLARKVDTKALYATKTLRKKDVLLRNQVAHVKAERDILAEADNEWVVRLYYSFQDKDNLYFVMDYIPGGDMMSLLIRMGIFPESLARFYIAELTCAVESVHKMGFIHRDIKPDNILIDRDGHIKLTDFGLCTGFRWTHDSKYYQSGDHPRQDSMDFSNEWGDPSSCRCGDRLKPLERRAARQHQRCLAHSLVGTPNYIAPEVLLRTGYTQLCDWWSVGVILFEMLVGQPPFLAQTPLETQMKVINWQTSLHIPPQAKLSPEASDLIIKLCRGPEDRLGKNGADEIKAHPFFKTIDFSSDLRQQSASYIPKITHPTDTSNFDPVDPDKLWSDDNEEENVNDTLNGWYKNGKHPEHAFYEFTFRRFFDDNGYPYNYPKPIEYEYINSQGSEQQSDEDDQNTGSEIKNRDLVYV
Chain of CAMKK2 (human) (Q96RR4 whole entry, looked up): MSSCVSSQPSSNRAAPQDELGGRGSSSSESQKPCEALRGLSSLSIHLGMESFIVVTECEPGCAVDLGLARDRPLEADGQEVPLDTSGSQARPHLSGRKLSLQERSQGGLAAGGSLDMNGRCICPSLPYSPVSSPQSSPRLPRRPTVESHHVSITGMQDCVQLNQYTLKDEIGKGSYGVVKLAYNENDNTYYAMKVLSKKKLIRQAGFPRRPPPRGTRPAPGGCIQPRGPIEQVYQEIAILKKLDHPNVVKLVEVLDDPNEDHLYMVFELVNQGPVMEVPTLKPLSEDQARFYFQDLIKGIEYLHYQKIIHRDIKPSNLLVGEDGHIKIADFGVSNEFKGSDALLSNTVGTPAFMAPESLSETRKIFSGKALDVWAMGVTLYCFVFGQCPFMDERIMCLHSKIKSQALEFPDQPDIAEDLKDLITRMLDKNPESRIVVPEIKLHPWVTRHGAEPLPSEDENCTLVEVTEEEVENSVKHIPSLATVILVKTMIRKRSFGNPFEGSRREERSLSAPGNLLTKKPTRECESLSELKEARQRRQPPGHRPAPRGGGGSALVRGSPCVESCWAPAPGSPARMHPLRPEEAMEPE
Chain of NEK9 (human) (Q8TD19 whole entry, looked up): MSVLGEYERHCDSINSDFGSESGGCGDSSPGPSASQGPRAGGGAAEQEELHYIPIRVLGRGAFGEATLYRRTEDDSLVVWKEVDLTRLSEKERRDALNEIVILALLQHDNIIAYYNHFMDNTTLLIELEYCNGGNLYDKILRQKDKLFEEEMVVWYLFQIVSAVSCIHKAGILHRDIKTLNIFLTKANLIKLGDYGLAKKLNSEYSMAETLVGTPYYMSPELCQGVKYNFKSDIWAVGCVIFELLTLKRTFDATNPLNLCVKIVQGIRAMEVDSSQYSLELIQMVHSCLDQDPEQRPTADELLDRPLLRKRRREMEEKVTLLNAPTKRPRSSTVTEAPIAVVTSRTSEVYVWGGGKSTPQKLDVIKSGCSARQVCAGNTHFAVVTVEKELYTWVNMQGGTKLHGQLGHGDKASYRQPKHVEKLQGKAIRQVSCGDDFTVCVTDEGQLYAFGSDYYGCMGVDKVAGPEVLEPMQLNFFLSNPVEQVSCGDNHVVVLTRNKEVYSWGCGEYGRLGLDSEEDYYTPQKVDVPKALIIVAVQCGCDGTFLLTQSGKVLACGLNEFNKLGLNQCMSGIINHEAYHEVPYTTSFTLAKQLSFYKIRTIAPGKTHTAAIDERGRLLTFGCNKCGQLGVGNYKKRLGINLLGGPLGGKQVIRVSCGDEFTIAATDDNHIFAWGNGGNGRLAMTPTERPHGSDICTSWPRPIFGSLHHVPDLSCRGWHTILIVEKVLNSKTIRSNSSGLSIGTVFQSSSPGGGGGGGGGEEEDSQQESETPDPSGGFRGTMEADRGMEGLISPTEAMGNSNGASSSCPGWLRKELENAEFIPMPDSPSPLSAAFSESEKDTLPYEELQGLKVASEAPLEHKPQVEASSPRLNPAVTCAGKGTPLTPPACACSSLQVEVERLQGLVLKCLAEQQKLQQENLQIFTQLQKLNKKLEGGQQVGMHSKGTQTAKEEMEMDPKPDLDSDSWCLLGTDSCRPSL
Chain of ULK1 (human) (O75385 whole entry, looked up): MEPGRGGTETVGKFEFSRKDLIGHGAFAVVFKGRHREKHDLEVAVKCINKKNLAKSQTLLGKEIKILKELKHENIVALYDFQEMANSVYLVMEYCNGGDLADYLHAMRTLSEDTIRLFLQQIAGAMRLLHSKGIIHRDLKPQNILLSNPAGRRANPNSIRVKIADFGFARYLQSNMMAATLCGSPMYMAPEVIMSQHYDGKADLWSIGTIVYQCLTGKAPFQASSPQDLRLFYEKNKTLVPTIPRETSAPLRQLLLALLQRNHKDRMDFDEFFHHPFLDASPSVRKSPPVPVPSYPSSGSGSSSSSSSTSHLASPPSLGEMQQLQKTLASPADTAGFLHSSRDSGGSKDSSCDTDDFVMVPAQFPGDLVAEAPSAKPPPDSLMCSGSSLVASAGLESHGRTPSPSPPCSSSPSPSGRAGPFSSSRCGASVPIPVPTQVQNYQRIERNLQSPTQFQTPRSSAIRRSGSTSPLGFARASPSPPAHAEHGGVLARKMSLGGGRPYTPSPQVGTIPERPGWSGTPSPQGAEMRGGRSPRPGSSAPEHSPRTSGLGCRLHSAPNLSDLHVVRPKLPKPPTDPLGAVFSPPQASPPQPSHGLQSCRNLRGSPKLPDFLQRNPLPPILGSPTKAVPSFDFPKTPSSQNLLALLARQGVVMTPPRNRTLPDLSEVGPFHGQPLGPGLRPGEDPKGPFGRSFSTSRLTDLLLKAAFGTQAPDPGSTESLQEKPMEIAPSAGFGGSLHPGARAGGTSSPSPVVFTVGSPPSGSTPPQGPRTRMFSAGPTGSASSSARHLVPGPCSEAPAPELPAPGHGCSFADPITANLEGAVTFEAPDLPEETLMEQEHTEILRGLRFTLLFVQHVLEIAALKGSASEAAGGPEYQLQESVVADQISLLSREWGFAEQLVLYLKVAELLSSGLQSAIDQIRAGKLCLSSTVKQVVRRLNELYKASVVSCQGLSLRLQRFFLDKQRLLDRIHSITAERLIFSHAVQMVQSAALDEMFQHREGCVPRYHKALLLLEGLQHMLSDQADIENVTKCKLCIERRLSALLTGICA
Chain of CSNK1D (human) (P48730 whole entry, looked up): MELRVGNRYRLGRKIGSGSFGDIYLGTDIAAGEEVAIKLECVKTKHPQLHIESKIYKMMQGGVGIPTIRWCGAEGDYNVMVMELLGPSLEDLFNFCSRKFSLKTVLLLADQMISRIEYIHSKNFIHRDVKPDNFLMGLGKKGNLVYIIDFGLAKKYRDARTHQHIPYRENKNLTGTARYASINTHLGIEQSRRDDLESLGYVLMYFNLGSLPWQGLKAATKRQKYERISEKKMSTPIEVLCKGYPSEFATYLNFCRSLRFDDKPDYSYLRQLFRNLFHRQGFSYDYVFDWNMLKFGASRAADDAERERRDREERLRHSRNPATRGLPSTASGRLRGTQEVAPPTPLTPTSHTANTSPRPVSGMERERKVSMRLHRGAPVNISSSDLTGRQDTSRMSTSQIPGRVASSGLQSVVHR
Chain of CDK16 (human) (Q00536 whole entry, looked up): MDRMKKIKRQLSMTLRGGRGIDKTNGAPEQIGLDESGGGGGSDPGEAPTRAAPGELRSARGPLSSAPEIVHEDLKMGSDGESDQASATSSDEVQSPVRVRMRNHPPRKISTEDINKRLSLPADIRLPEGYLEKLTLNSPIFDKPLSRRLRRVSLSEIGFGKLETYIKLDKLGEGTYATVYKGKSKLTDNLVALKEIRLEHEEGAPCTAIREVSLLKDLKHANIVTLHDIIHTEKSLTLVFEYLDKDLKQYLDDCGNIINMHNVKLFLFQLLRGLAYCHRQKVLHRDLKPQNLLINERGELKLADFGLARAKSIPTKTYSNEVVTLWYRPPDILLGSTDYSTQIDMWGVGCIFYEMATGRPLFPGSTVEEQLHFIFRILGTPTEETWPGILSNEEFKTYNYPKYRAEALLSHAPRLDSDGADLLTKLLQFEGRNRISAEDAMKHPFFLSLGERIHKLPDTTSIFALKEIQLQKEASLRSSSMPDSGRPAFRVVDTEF
Chain of CDK7 (human) (P50613 whole entry, looked up): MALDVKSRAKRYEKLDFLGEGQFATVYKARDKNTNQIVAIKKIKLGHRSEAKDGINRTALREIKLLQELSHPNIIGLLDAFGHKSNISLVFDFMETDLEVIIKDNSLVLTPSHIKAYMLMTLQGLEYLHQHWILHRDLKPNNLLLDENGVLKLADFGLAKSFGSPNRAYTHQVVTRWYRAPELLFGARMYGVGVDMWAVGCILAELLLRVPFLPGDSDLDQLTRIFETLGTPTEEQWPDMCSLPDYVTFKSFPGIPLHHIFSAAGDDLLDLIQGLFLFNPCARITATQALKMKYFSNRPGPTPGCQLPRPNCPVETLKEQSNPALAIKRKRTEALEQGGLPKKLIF

Row | Compound | kinase still bound, per cent of control (PTK2B (human)) [%] | kinase still bound, per cent of control (ADCK4 (human)) [%] | kinase still bound, per cent of control (ANKK1 (human)) [%] | kinase still bound, per cent of control (TGFBR1 (human)) [%] | kinase still bound, per cent of control (GSK3A (human)) [%] | kinase still bound, per cent of control (CDK16 (human)) [%] | kinase still bound, per cent of control (TLK2 (human)) [%] | kinase still bound, per cent of control (PHKG1 (human)) [%] | kinase still bound, per cent of control (MAP3K4 (human)) [%] | kinase still bound, per cent of control (ACVR1 (human)) [%] | kinase still bound, per cent of control (MAP3K11 (human)) [%] | kinase still bound, per cent of control (RPS6KA6 KD2 (human)) [%] | kinase still bound, per cent of control (PRKACA (human)) [%] | kinase still bound, per cent of control (NEK1 (human)) [%] | kinase still bound, per cent of control (MYO3A (human)) [%] | kinase still bound, per cent of control (DCLK2 (human)) [%] | kinase still bound, per cent of control (LATS1 (human)) [%] | kinase still bound, per cent of control (STK25 (human)) [%] | kinase still bound, per cent of control (MLTK (human)) [%] | kinase still bound, per cent of control (NEK9 (human)) [%] | further results
1 | C[C@@H](Oc1cc(-n2cnc3ccc(CN4CCN(C)CC4)cc32)sc1C(N)=O)c1ccccc1C(F)(F)F | 82 | 58 | 26 | 99 | 100 | 100 | 94 | 94 | 100 | 100 | 75 | 73 | 100 | 41 | 78 | 100 | 100 | 83 | 100 | 10 | kinase still bound, per cent of control (PIK3CB (human)): 0.8%; kinase still bound, per cent of control (RET (human)): 100%; kinase still bound, per cent of control (AURKB (human)): 80%; kinase still bound, per cent of control (CSNK1D (human)): 100%; kinase still bound, per cent of control (PLK1 (human)): 0.1%; kinase still bound, per cent of control (PHKG2 (human)): 43%; kinase still bound, per cent of control (ULK1 (human)): 41%; kinase still bound, per cent of control (LYN (human)): 99%; kinase still bound, per cent of control (NUAK1 (human)): 17%; kinase still bound, per cent of control (RIOK3 (human)): 6.6%; kinase still bound, per cent of control [1]: 87%; kinase still bound, per cent of control (CAMKK2 (human)): 66%; kinase still bound, per cent of control (PDGFRA (human)): 100%; kinase still bound, per cent of control (CSNK1G1 (human)): 100%; kinase still bound, per cent of control (CDK14 (human)): 94%; kinase still bound, per cent of control (CDK7 (human)): 33%; kinase still bound, per cent of control (EPHA8 (human)): 90%; kinase still bound, per cent of control (ACVR2B (human)): 100%; kinase still bound, per cent of control (PAK2 (human)): 38%
2 | Cc1cc([C@@H](C)Nc2ccccc2C(=O)O)c2nc(N3CCOCC3)cc(=O)n2c1 | 100 | 79 | 100 | 100 | 100 | 100 | 88 | 93 | 100 | 98 | 100 | 100 | 100 | 85 | 97 | 100 | 100 | 76 | 100 | 100 | kinase still bound, per cent of control (DAPK1 (human)): 95%; kinase still bound, per cent of control (RET (human)): 100%; kinase still bound, per cent of control (AURKB (human)): 96%; kinase still bound, per cent of control (CSNK1D (human)): 86%; kinase still bound, per cent of control (PLK1 (human)): 100%; kinase still bound, per cent of control (PHKG2 (human)): 100%; kinase still bound, per cent of control (ULK1 (human)): 91%; kinase still bound, per cent of control (LYN (human)): 99%; kinase still bound, per cent of control (NUAK1 (human)): 100%; kinase still bound, per cent of control (RIOK3 (human)): 100%; kinase still bound, per cent of control [1]: 62%; kinase still bound, per cent of control (CAMKK2 (human)): 100%; kinase still bound, per cent of control (PDGFRA (human)): 84%; kinase still bound, per cent of control (CSNK1G1 (human)): 68%; kinase still bound, per cent of control (CDK14 (human)): 100%; kinase still bound, per cent of control (CDK7 (human)): 97%; kinase still bound, per cent of control (EPHA8 (human)): 96%; kinase still bound, per cent of control (ACVR2B (human)): 100%; kinase still bound, per cent of control (PAK2 (human)): 100%
3 | CCCS(=O)(=O)Nc1ccc(F)c(C(=O)c2c[nH]c3ncc(-c4ccc(Cl)cc4)cc23)c1F | 100 | 100 | 91 | 53 | 54 | 96 | 94 | 100 | 63 | 100 | 81 | 75 | 100 | 100 | 57 | 100 | 100 | 100 | 7.4 | 98 | kinase still bound, per cent of control (DAPK1 (human)): 83%; kinase still bound, per cent of control (PIK3CB (human)): 100%; kinase still bound, per cent of control (RET (human)): 43%; kinase still bound, per cent of control (CSNK1D (human)): 97%; kinase still bound, per cent of control (PLK1 (human)): 100%; kinase still bound, per cent of control (PHKG2 (human)): 100%; kinase still bound, per cent of control (ULK1 (human)): 93%; kinase still bound, per cent of control (LYN (human)): 16%; kinase still bound, per cent of control (NUAK1 (human)): 100%; kinase still bound, per cent of control (RIOK3 (human)): 100%; kinase still bound, per cent of control [1]: 84%; kinase still bound, per cent of control (CAMKK2 (human)): 100%; kinase still bound, per cent of control (PDGFRA (human)): 0.45%; kinase still bound, per cent of control (CSNK1G1 (human)): 100%; kinase still bound, per cent of control (CDK14 (human)): 100%; kinase still bound, per cent of control (CDK7 (human)): 82%; kinase still bound, per cent of control (EPHA8 (human)): 83%; kinase still bound, per cent of control (ACVR2B (human)): 27%; kinase still bound, per cent of control (PAK2 (human)): 80%
